Assays:
Test in all cases: relative viability vs DMSO control (72 h) (fraction); higher = more viable cells
A204 = test system: A204
How it was run: (§1)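 ATPLite readings, expressed as percent growth and averaged over up to triplicate wells, provided relative viability. Before reading, sarcoma cell lines seeded in 384-well plates to reach 80–90% confluence received 2.5 µl of serially diluted compound after 24 h, from source plates of 10 mM to 0.0002 mM. Plates were held 72 h at 37 °C, 5% CO2, with 0.1% DMSO as vehicle and a 5 µM positive control. The data were rescaled to 1 for full and 0 for none.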

G401 = test system: G401
How it was run: as §1

HS729 = test system: HS729
How it was run: as §1

HT1080 = test system: HT1080
How it was run: as §1

KHOS-NP = test system: KHOS-NP
How it was run: as §1

RD-ES = test system: RD-ES
How it was run: as §1

SK-ES-1 = test system: SK-ES-1
How it was run: as §1

SK-LMS-1 = test system: SK-LMS-1
How it was run: as §1

SW684 = test system: SW684
How it was run: as §1

SW872 = test system: SW872
How it was run: as §1

SW982 = test system: SW982
How it was run: as §1

VA-ES-BJ = test system: VA-ES-BJ
How it was run: as §1

CN1CCN(CCOc2cc(OC3CCOCC3)c3c(Nc4c(Cl)ccc5c4OCO5)ncnc3c2)CC1 [Saracatinib]
Details | relative viability
A204, 0.00017 µM | 1.03
A204, 0.00051 µM | 1.05
A204, 0.00152 µM | 1.06
A204, 0.00457 µM | 1.06
A204, 0.01372 µM | 1.04
A204, 0.04115 µM | 1.01
A204, 0.1235 µM | 0.992
A204, 0.3704 µM | 0.963
A204, 1.111 µM | 0.882
A204, 3.333 µM | 0.679
A204, 10 µM | 0.468
G401, 0.00017 µM | 1.03
G401, 0.00051 µM | 1.05
G401, 0.00152 µM | 1.008
G401, 0.00457 µM | 1.04
G401, 0.01372 µM | 1.05
G401, 0.04115 µM | 1.01
G401, 0.1235 µM | 0.955
G401, 0.3704 µM | 0.912
G401, 1.111 µM | 0.86
G401, 3.333 µM | 0.797
G401, 10 µM | 0.668
HS729, 0.00017 µM | 1
HS729, 0.00051 µM | 0.991
HS729, 0.00152 µM | 0.97
HS729, 0.00457 µM | 0.983
HS729, 0.01372 µM | 0.885
HS729, 0.04115 µM | 0.867
HS729, 0.1235 µM | 0.869
HS729, 0.3704 µM | 0.792
HS729, 1.111 µM | 0.691
HS729, 3.333 µM | 0.62
HS729, 10 µM | 0.627
HT1080, 0.00017 µM | 1.05
HT1080, 0.00051 µM | 1.04
HT1080, 0.00152 µM | 1.05
HT1080, 0.00457 µM | 1.01
HT1080, 0.01372 µM | 1.022
HT1080, 0.04115 µM | 1.02
HT1080, 0.1235 µM | 1.053
HT1080, 0.3704 µM | 1.04
HT1080, 1.111 µM | 1.01
HT1080, 3.333 µM | 0.952
HT1080, 10 µM | 0.859
KHOS-NP, 0.00017 µM | 1.094
KHOS-NP, 0.00051 µM | 1.1
KHOS-NP, 0.00152 µM | 1.08
KHOS-NP, 0.00457 µM | 1.07
KHOS-NP, 0.01372 µM | 1.07
KHOS-NP, 0.04115 µM | 1.061
KHOS-NP, 0.1235 µM | 1.06
KHOS-NP, 0.3704 µM | 1.05
KHOS-NP, 1.111 µM | 0.994
KHOS-NP, 3.333 µM | 0.862
KHOS-NP, 10 µM | 0.693
RD-ES, 0.00017 µM | 0.975
RD-ES, 0.00051 µM | 1
RD-ES, 0.00152 µM | 0.99
RD-ES, 0.00457 µM | 1.01
RD-ES, 0.01372 µM | 0.979
RD-ES, 0.04115 µM | 0.982
RD-ES, 0.1235 µM | 0.966
RD-ES, 0.3704 µM | 0.935
RD-ES, 1.111 µM | 0.898
RD-ES, 3.333 µM | 0.858
RD-ES, 10 µM | 0.735
SK-ES-1, 0.00017 µM | 0.989
SK-ES-1, 0.00051 µM | 1.05
SK-ES-1, 0.00152 µM | 1.04
SK-ES-1, 0.00457 µM | 1.01
SK-ES-1, 0.01372 µM | 1.04
SK-ES-1, 0.04115 µM | 1.01
SK-ES-1, 0.1235 µM | 0.968
SK-ES-1, 0.3704 µM | 0.951
SK-ES-1, 1.111 µM | 0.903
SK-ES-1, 3.333 µM | 0.81
SK-ES-1, 10 µM | 0.604
SK-LMS-1, 0.00017 µM | 1.03
SK-LMS-1, 0.00051 µM | 1.06
SK-LMS-1, 0.00152 µM | 1.05
SK-LMS-1, 0.00457 µM | 1.04
SK-LMS-1, 0.01372 µM | 1.02
SK-LMS-1, 0.04115 µM | 1.05
SK-LMS-1, 0.1235 µM | 0.973
SK-LMS-1, 0.3704 µM | 0.933
SK-LMS-1, 1.111 µM | 0.864
SK-LMS-1, 3.333 µM | 0.71
SK-LMS-1, 10 µM | 0.491
SW684, 0.00017 µM | 1.11
SW684, 0.00051 µM | 1.15
SW684, 0.00152 µM | 1.16
SW684, 0.00457 µM | 1.177
SW684, 0.01372 µM | 1.15
SW684, 0.04115 µM | 1.17
SW684, 0.1235 µM | 1.14
SW684, 0.3704 µM | 1.15
SW684, 1.111 µM | 1.07
SW684, 3.333 µM | 1.05
SW684, 10 µM | 1.08
SW872, 0.00017 µM | 1.07
SW872, 0.00051 µM | 1.05
SW872, 0.00152 µM | 1.06
SW872, 0.00457 µM | 1.019
SW872, 0.01372 µM | 1.05
SW872, 0.04115 µM | 0.977
SW872, 0.1235 µM | 0.9173
SW872, 0.3704 µM | 0.828
SW872, 1.111 µM | 0.693
SW872, 3.333 µM | 0.655
SW872, 10 µM | 0.59
SW982, 0.00017 µM | 1.02
SW982, 0.00051 µM | 1.09
SW982, 0.00152 µM | 1.05
SW982, 0.00457 µM | 1.06
SW982, 0.01372 µM | 1.08
SW982, 0.04115 µM | 1.08
SW982, 0.1235 µM | 0.919
SW982, 0.3704 µM | 0.739
SW982, 1.111 µM | 0.568
SW982, 3.333 µM | 0.486
SW982, 10 µM | 0.442
VA-ES-BJ, 0.00017 µM | 1.05
VA-ES-BJ, 0.00051 µM | 1.07
VA-ES-BJ, 0.00152 µM | 1.07
VA-ES-BJ, 0.00457 µM | 1.11
VA-ES-BJ, 0.01372 µM | 1.11
VA-ES-BJ, 0.04115 µM | 1.14
VA-ES-BJ, 0.1235 µM | 1.14
VA-ES-BJ, 0.3704 µM | 1.12
VA-ES-BJ, 1.111 µM | 0.941
VA-ES-BJ, 3.333 µM | 0.805
VA-ES-BJ, 10 µM | 0.681

— the supplement of paper PMC10883282
